Columns and labels:
bedstraw = assay: Test B pre/postemergence bedstraw; format: in vivo, Galium aparine
Method in brief: (§1)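 Response is a visual 0-to-10 score relative to untreated plants, where 0 means no effect and 10 means complete control, taken twelve to sixteen days after application. Treatments went onto soil at planting and onto foliage of 1- to 4-leaf plants, using a surfactant-containing non-phytotoxic solvent.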

blackgrass = assay: Test B pre/postemergence blackgrass; format: in vivo, Alopecurus myosuroides
Method in brief: as §1

surinam grass = assay: Test B pre/postemergence surinam grass; format: in vivo, Brachiaria decumbens
Method in brief: as §1

cocklebur = assay: Test B pre/postemergence cocklebur; format: in vivo, Xanthium strumarium
Method in brief: as §1

corn = assay: Test B pre/postemergence corn; format: in vivo, Zea mays
Method in brief: as §1

crabgrass = assay: Test B pre/postemergence crabgrass; format: in vivo, Digitaria sanguinalis
Method in brief: as §1

giant foxtail = assay: Test B pre/postemergence giant foxtail; format: in vivo, Setaria faberii
Method in brief: as §1

morningglory = assay: Test B pre/postemergence morningglory; format: in vivo, Ipomoea hederacea
Method in brief: as §1

pigweed = assay: Test B pre/postemergence pigweed; format: in vivo, Amaranthus retroflexus
Method in brief: as §1

rape = assay: Test B pre/postemergence rape; format: in vivo, Brassica napus
Method in brief: as §1

sugar beet = assay: Test B pre/postemergence sugar beet; format: in vivo, Beta vulgaris
Method in brief: as §1

wheat = assay: Test B pre/postemergence wheat; format: in vivo, Triticum aestivum
Method in brief: as §1

wild oat = assay: Test B pre/postemergence wild oat; format: in vivo, Avena fatua
Method in brief: as §1

purple nutsedge = assay: Test B pre/postemergence purple nutsedge; format: in vivo, Cyperus rotundus
Method in brief: as §1

rice = assay: Test B flood test rice; format: in vivo, Oryza sativa; conditions: Rate 500 g/ha, Pre-emergence section of Table B; 0 to 10 scale (0 no effect, 10 complete control)
Method in brief: (§2)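 Flood test on plants grown to the 2-leaf stage; treated plants kept in greenhouse twelve to sixteen days, then visually rated against controls on a 0 (no effect) to 10 (complete control) scale.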

bamyardgrass = assay: Test B flood test barnyardgrass; format: in vivo, Echinochloa crus-galli
Method in brief: as §2

[1] = Postemergence, Rate 125 g/ha, scale 0 to 10, 0 is no effect, 10 is complete control
[2] = Preemergence, Rate 62 g/ha, scale 0 to 10 (0 no effect, 10 complete control)
[3] = Preemergence, Rate 125 g/ha, scale 0 to 10, 0 is no effect, 10 is complete control
[4] = Preemergence, Rate 500 g/ha, scale of 0 to 10 where 0 is no effect and 10 is complete control
[5] = Rate 250 g/ha, Postemergence, scale of 0 to 10 where 0 is no effect and 10 is complete control
[6] = Postemergence, Rate 62 g/ha, scale of 0 to 10, 0 is no effect, 10 is complete control
[7] = Postemergence, Rate 500 g/ha, scale of 0 to 10 where 0 is no effect and 10 is complete control

`CCCCCCn1c(=O)on(C(=O)N(c2ccccc2)C(C)C)c1=O` [Compound 558] was tested, and the “Bedstraw plant response rating” value (bedstraw; [1]) was 0, the “Bedstraw plant response rating” value (bedstraw; [2]) was 0 and the “Bedstraw plant response rating” value (bedstraw; [3]) was 0. For the same compound, the “Bedstraw plant response rating (0 to 10 scale)” value (bedstraw; Preemergence, Rate 250 g/ha) was 0, the “Bedstraw plant response rating” value (bedstraw; [4]) was 0 and the “Plant response rating, Bedstraw” value (bedstraw; [5]) was 0. For the same compound, the “Blackgrass plant response rating” value (blackgrass; [6]) was 0, the “Blackgrass plant response rating” value (blackgrass; [1]) was 0 and the “Plant response rating, Blackgrass” value (blackgrass; [7]) was 2. For the same compound, the “Blackgrass plant response rating” value (blackgrass; [2]) was 2, the “Blackgrass plant response rating” value (blackgrass; [3]) was 2 and the “Blackgrass plant response rating (0 to 10 scale)” value (blackgrass; Preemergence, Rate 250 g/ha) was 6. For the same compound, the “Blackgrass plant response rating” value (blackgrass; [4]) was 9, the “Plant response rating, Blackgrass” value (blackgrass; [5]) was 2 and the “B. signalgrass plant response rating” value (surinam grass; [6]) was 0. The “Plant response rating, B. signalgrass” value (surinam grass; [7]) was 3, the “B. signalgrass plant response rating” value (surinam grass; [2]) was 0 and the “B. signalgrass plant response rating” value (surinam grass; [3]) was 0. The “B. signalgrass plant response rating (0 to 10 scale, 0 is no effect, 10 is complete control)” value (surinam grass; Preemergence, Rate 250 g/ha) was 3, the “B. signalgrass plant response rating” value (surinam grass; [4]) was 6 and the “Plant response rating, B. signalgrass” value (surinam grass; [5]) was 0. For the same compound, the “Cocklebur plant response rating” value (cocklebur; [6]) was 0, the “Cocklebur plant response rating” value (cocklebur; [1]) was 0 and the “Plant response rating, Cocklebur” value (cocklebur; [7]) was 0. For the same compound, the “Cocklebur plant response rating” value (cocklebur; [2]) was 0, the “Cocklebur plant response rating” value (cocklebur; [3]) was 0 and the “Cocklebur plant response rating (0 to 10 scale)” value (cocklebur; Preemergence, Rate 250 g/ha) was 0. For the same compound, the “Cocklebur plant response rating” value (cocklebur; [4]) was 0, the “Plant response rating, Cocklebur” value (cocklebur; [5]) was 0 and the “Corn plant response rating” value (corn; [6]) was 0. For the same compound, the “Corn plant response rating” value (corn; [1]) was 0, the “Plant response rating, Corn” value (corn; [7]) was 0 and the “Corn plant response rating” value (corn; [2]) was 0. For the same compound, the “Corn plant response rating” value (corn; [3]) was 0, the “Corn plant response rating (0 to 10 scale)” value (corn; Preemergence, Rate 250 g/ha) was 0 and the “Corn plant response rating” value (corn; [4]) was 0. The “Plant response rating, Corn” value (corn; [5]) was 0, the “Crabgrass plant response rating” value (crabgrass; [6]) was 0 and the “Crabgrass plant response rating” value (crabgrass; [1]) was 0. For the same compound, the “Plant response rating, Crabgrass” value (crabgrass; [7]) was 8, the “Crabgrass plant response rating” value (crabgrass; [2]) was 8 and the “Crabgrass plant response rating” value (crabgrass; [3]) was 9. For the same compound, the “Crabgrass plant response rating (0 to 10 scale)” value (crabgrass; Preemergence, Rate 250 g/ha) was 9, the “Crabgrass plant response rating” value (crabgrass; [4]) was 9 and the “Plant response rating, Crabgrass” value (crabgrass; [5]) was 8. The “Giant foxtail plant response rating” value (giant foxtail; [6]) was 2, the “Giant foxtail plant response rating” value (giant foxtail; [1]) was 2 and the “Plant response rating, Giant foxtail” value (giant foxtail; [7]) was 8. For the same compound, the “Giant foxtail plant response rating” value (giant foxtail; [2]) was 8, the “Giant foxtail plant response rating” value (giant foxtail; [3]) was 9 and the “Giant foxtail plant response rating (0 to 10 scale)” value (giant foxtail; Preemergence, Rate 250 g/ha) was 9. The “Giant foxtail plant response rating” value (giant foxtail; [4]) was 10, the “Plant response rating, Giant foxtail” value (giant foxtail; [5]) was 5 and the “Morningglory plant response rating” value (morningglory; [6]) was 10. For the same compound, the “Morningglory plant response rating” value (morningglory; [1]) was 10, the “Plant response rating, Morningglory” value (morningglory; [7]) was 10 and the “Morningglory plant response rating” value (morningglory; [2]) was 0. For the same compound, the “Morningglory plant response rating” value (morningglory; [3]) was 0, the “Morningglory plant response rating (0 to 10 scale)” value (morningglory; Preemergence, Rate 250 g/ha) was 0 and the “Morningglory plant response rating” value (morningglory; [4]) was 0. For the same compound, the “Plant response rating, Morningglory” value (morningglory; [5]) was 10, the “Redroot pigweed plant response rating” value (pigweed; [6]) was 0 and the “Plant response rating, Redroot pigweed” value (pigweed; [7]) was 0. The “Redroot pigweed plant response rating” value (pigweed; [2]) was 0, the “Redroot pigweed plant response rating” value (pigweed; [3]) was 0 and the “Redroot pigweed plant response rating (0 to 10 scale)” value (pigweed; Preemergence, Rate 250 g/ha) was 2. For the same compound, the “Redroot pigweed plant response rating” value (pigweed; [4]) was 2, the “Plant response rating, Redroot pigweed” value (pigweed; [5]) was 0 and the “Rape plant response rating” value (rape; [6]) was 0. For the same compound, the “Rape plant response rating” value (rape; [1]) was 0, the “Plant response rating, Rape” value (rape; [7]) was 2 and the “Rape plant response rating” value (rape; [2]) was 0. The “Rape plant response rating” value (rape; [3]) was 0, the “Rape plant response rating (0 to 10 scale)” value (rape; Preemergence, Rate 250 g/ha) was 2 and the “Rape plant response rating” value (rape; [4]) was 2. The “Plant response rating, Rape” value (rape; [5]) was 0, the “Sugarbeets plant response rating” value (sugar beet; [6]) was 0 and the “Plant response rating, Sugarbeets” value (sugar beet; [7]) was 2. For the same compound, the “Sugarbeets plant response rating” value (sugar beet; [2]) was 0, the “Sugarbeets plant response rating” value (sugar beet; [3]) was 0 and the “Sugarbeets plant response rating (0 to 10 scale)” value (sugar beet; Preemergence, Rate 250 g/ha) was 0. For the same compound, the “Sugarbeets plant response rating” value (sugar beet; [4]) was 2, the “Plant response rating, Sugarbeets” value (sugar beet; [5]) was 2 and the “Wheat plant response rating” value (wheat; [6]) was 0. For the same compound, the “Plant response rating, Wheat” value (wheat; [7]) was 0, the “Wheat plant response rating” value (wheat; [2]) was 0 and the “Wheat plant response rating” value (wheat; [3]) was 0. The “Wheat plant response rating (0 to 10 scale)” value (wheat; Preemergence, Rate 250 g/ha) was 0, the “Wheat plant response rating” value (wheat; [4]) was 2 and the “Plant response rating, Wheat” value (wheat; [5]) was 0. For the same compound, the “Wild oats plant response rating” value (wild oat; [6]) was 0, the “Plant response rating, Wild oats” value (wild oat; [7]) was 0 and the “Wild oats plant response rating” value (wild oat; [2]) was 0. For the same compound, the “Wild oats plant response rating” value (wild oat; [3]) was 0, the “Wild oats plant response rating (0 to 10 scale)” value (wild oat; Preemergence, Rate 250 g/ha) was 0 and the “Wild oats plant response rating” value (wild oat; [4]) was 2. The “Plant response rating, Wild oats” value (wild oat; [5]) was 0, the “Nutsedge plant response rating” value (purple nutsedge; [6]) was 0 and the “Nutsedge plant response rating” value (purple nutsedge; [1]) was 0. For the same compound, the “Plant response rating, Nutsedge” value (purple nutsedge; [7]) was 0, the “Nutsedge plant response rating” value (purple nutsedge; [2]) was 0 and the “Nutsedge plant response rating” value (purple nutsedge; [3]) was 0. The “Nutsedge plant response rating (0 to 10 scale)” value (purple nutsedge; Preemergence, Rate 250 g/ha) was 0, the “Nutsedge plant response rating” value (purple nutsedge; [4]) was 0 and the “Plant response rating, Nutsedge” value (purple nutsedge; [5]) was 0. For the same compound, the “Rice plant response rating” value (rice) was 0, the “Plant response rating, Barnyardgrass (0 to 10 scale, 0 is no effect, 10 is complete control)” value (bamyardgrass; Rate 62 g/ha, flood test species, Pre-emergence, visual evaluation after twelve to sixteen days) was 0 and the “Barnyardgrass plant response rating (0 to 10 scale, 0 is no effect, 10 is complete control)” value (bamyardgrass; Rate 125 g/ha, under heading Pre-emergence, flood test species, visual evaluation after twelve to sixteen days) was 0. For the same compound, the “Barnyardgrass plant response rating” value (bamyardgrass; Rate 250 g/ha, Pre-emergence (flood test species), scale 0 to 10, 0 is no effect, 10 is complete control) was 2 and the “Barnyardgrass plant response rating” value (bamyardgrass; Rate 500 g/ha, Pre-emergence section of Table B, 0 to 10 scale (0 no effect, 10 complete control)) was 6.
